Patent US12617783B2, “Heterocyclic GLP-1R agonists” (BIOMEA FUSION, INC., priority 2024, dated 2026)

biological target: T1, human GLP-1R (Homo sapiens, UniProt P43220); experiment: GLP-1R cAMP assay (Example B1b, HTRF, 30 min at 37°); format: cell-based; conditions: cAMP accumulation in HEK293 expressing human GLP-1R, no BETP, 30 min at 37° (Method B1b), Table 1
T1 construct: host or cells: HEK293
Method: Assay was carried out with HEK293 expressing human GLP-1R using HTRF assay, developed by Wuxi Apptec. The method is a competitive assay between native cAMP produced by the cells and exogenous cAMP labeled with a proprietary dye d2. The tracer binding is visualized by a mAb anti-cAMP labeled with Cryptate. The signal (i.e. energy transfer) is inversely proportional to the concentration of CAMP in either standard or experimental sample. Compounds were tested in the absence of BETP. Ten microliter of cell suspension in assay buffer (5 mM HEPES, 500 μM IBMX, 0.1% BSA) were added to each well (1,000 cells per well) in a low volume 384-well plate for the assay. Serially diluted compounds were added in 100 nL volume to duplicate wells, by Labcyte Echo. GLP-1 (7-37) was used as positive control. Assay plate was incubated for 30 minutes at 37°. Stock of cAMP Detection Solution was prepared by mixing 38 parts of cAMP lysis buffer, 1 part of cAMP-D2, 1 part of anti-cAMP cryptate reagent (Cisbio #62AM4PEJ). Ten microliter of the cAMP Detection Solution was added to each well, and the assay plate was incubated for 1 hour at room temperature in the dark. Plates were read on Envision plate reader. The data were analyzed by ScreenUltra in Dotmatics, with % activation expressed using following formula: (Signal ratio […]*10000−negative control)/(postive control−negative control)*100. Dose response curves were plotted and EC50 values calculated by non-linear regression using 4-parameter fit. The potency (EC50) values for cAMP accumulation in HEK293 cells are reported in the Table 1 below (for compounds ID 610-708).

T1 sequence (P43220 24-463): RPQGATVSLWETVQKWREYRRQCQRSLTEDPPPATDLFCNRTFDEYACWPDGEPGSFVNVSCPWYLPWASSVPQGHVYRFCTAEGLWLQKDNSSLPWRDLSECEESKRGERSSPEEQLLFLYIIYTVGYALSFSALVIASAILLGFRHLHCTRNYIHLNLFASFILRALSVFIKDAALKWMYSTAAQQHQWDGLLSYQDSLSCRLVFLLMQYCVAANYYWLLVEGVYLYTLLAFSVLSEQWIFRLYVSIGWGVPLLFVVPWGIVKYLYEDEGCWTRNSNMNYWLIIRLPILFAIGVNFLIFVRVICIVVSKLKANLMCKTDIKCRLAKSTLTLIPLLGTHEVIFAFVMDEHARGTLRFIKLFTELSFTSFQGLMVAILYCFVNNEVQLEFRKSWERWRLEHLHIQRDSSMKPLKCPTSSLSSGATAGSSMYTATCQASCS

First: Cc1cc(-n2nc3c(c2-n2ccn(-c4ccc5c(cnn5C5CC5)c4F)c2=O)[C@@H]2COC[C@H](C3)N2C(=O)c2cc3cc(C4CCOCC4)ccc3n2[C@@]2(c3noc(=O)[nH]3)C[C@@H]2C)cc(C)c1F [Compound 715, 3-((1S,2S)-1-(2-((4R,8S)-3-(3-(1-cyclopropyl-4-fluoro-1H-indazol-5-yl)-2-oxo-2,3-dihydro-1H-imidazol-1-yl)-2-(4-fluoro-3,5-dimethylphenyl)-2,4,5,7,8,9-hexahydro-4,8-epiminooxocino [5,4-c]pyrazole-10-carbonyl)-5-(tetrahydro-2H-pyran-4-yl)-1H-indol-1-yl)-2-methylcyclopropyl)-1,2,4-oxadiazol-5 (4H)-one]
Second: Cc1cc(-n2nc3c(c2-n2ccn(-c4ccc5c(cnn5C5CC5)c4F)c2=O)[C@@H]2COC[C@H](C3)N2C(=O)c2cc3cc([C@H]4CCOC(C)(C)C4)ccc3n2[C@@]2(c3noc(=O)[nH]3)C[C@@H]2C)cc(C)c1F [Compound 617, 3-((1S,2S)-1-(2-((4R,8S)-3-(3-(1-cyclopropyl-4-fluoro-1H-indazol-5-yl)-2-oxo-2,3-dihydro-1H-imidazol-1-yl)-2-(4-fluoro-3,5-dimethylphenyl)-2,4,5,7,8,9-hexahydro-4,8-epiminooxocino [5,4-c]pyrazole-10-carbonyl)-5-((S)-2,2-dimethyltetrahydro-2H-pyran-4-yl)-1H-indol-1-yl)-2-methylcyclopropyl)-1,2,4-oxadiazol-5 (4H)-one]
The EC50 of the first is 1.6-fold higher: 0.004 µM for the first, 0.0025 µM for the second. The second is the more potent here.

First: Cc1cc(-n2nc3c(c2-n2ccn(-c4ccc5c(cnn5C)c4F)c2=O)[C@@H]2CC[C@H](C3)N2C(=O)c2cc3cc([C@H]4CCOC(C)(C)C4)ccc3n2[C@@]2(c3noc(=O)n3C)C[C@@H]2C)cc(C)c1F [Compound 613, 3-[(1S,2S)-1-[5-[(4S)-2,2-dimethyltetrahydropyran-4-yl]-2-[(1S,8R)-4-(4-fluoro-3,5-dimethyl-phenyl)-3-[3-(4-fluoro-1-methyl-indazol-5-yl)-2-oxo-imidazol-1-yl]-4,5,11-triazatricyclo[6.2.1.02,6]undeca-2,5-diene-11-carbonyl]indol-1-yl]-2-methyl-cyclopropyl]-4-methyl-1,2,4-oxadiazol-5-one]
Second: Cc1cc(-n2nc3c(c2-n2ccn(-c4ccc5c(cnn5C)c4F)c2=O)[C@@H]2CC[C@H](C3)N2C(=O)c2cc3cc([C@H]4CCOC(C)(C)C4)cc(F)c3n2[C@@]2(c3noc(=O)[nH]3)C[C@@H]2C)cc(C)c1F [Compound 711, 3-[(1S,2S)-1-[5-[(4S)-2,2-dimethyltetrahydropyran-4-yl]-7-fluoro-2-[(1S,8R)-4-(4-fluoro-3,5-dimethyl-phenyl)-3-[3-(4-fluoro-1-methyl-indazol-5-yl)-2-oxo-imidazol-1-yl]-4,5,11-triazatricyclo[6.2.1.02,6]undeca-2,5-diene-11-carbonyl]indol-1-yl]-2-methyl-cyclopropyl]-4H-1,2,4-oxadiazol-5-one]
The EC50 of the first is 8.4-fold higher: 0.0505 µM for the first, 0.006 µM for the second. The second is the more potent here.

Compared with Cc1cc(-n2nc3c(c2-n2ccn(-c4ccc(N(C)C(=O)C5CC5)c(Cl)c4)c2=O)[C@@H]2CCC[C@H](C3)N2C(=O)c2cc3cc([C@H]4CCOC(C)(C)C4)ccc3n2[C@@]2(c3noc(=O)[nH]3)C[C@@H]2C)cc(C)c1F [Compound 612, N-(2-chloro-4-(3-((4S,8R)-10-(5-((S)-2,2-dimethyltetrahydro-2H-pyran-4-yl)-1-((1S,2S)-2-methyl-1-(5-oxo-4,5-dihydro-1,2,4-oxadiazol-3-yl)cyclopropyl)-1H-indole-2-carbonyl)-2-(4-fluoro-3,5-dimethylphenyl)-4,5,6,7,8,9-hexahydro-2H-4,8-epiminocycloocta [c]pyrazol-3-yl)-2-oxo-2,3-dihydro-1H-imidazol-1-yl)phenyl)-N-methylcyclopropanecarboxamide], Cc1cc(-n2nc3c(c2-n2ccn(-c4ccc5c(c4)N(C)C(=O)C5=O)c2=O)[C@@H]2CCC[C@H](C3)N2C(=O)c2cc3cc([C@H]4CCOC(C)(C)C4)ccc3n2[C@@]2(c3noc(=O)[nH]3)C[C@@H]2C)cc(C)c1F [Compound 710, 6-(3-((4S,8R)-10-(5-((S)-2,2-dimethyltetrahydro-2H-pyran-4-yl)-1-((1S,2S)-2-methyl-1-(5-oxo-4,5-dihydro-1,2,4-oxadiazol-3-yl)cyclopropyl)-1H-indole-2-carbonyl)-2-(4-fluoro-3,5-dimethylphenyl)-4,5,6,7,8,9-hexahydro-2H-4,8-epiminocycloocta [c]pyrazol-3-yl)-2-oxo-2,3-dihydro-1H-imidazol-1-yl)-1-methylindoline-2,3-dione] is 2.1-fold higher in EC50: 0.0019 µM for the first, 0.004 µM for the second.

Compared with Cc1cc(-c2nn3c(c2-n2ccn(-c4ccc5c(cnn5C)c4F)c2=O)[C@@H](C)N(C(=O)c2cc4cc([C@H]5CCOC(C)(C)C5)ccc4n2[C@@]2(c4noc(=O)[nH]4)C[C@@H]2C)CCC3)cc(C)c1F [Compound 702, 3-((1S,2S)-1-(5-((S)-2,2-dimethyltetrahydro-2H-pyran-4-yl)-2-((R)-3-(3-(4-fluoro-1-methyl-1H-indazol-5-yl)-2-oxo-2,3-dihydro-1H-imidazol-1-yl)-2-(4-fluoro-3,5-dimethylphenyl)-4-methyl-5,6,7,8-tetrahydro-4H-pyrazolo[1,5-a][1,4]diazepine-5-carbonyl)-1H-indol-1-yl)-2-methylcyclopropyl)-1,2,4-oxadiazol-5 (4H)-one], Cc1cc(-c2nn3c(c2-n2ccn(-c4ccc5c(cnn5C)c4F)c2=O)[C@H](C)N(C(=O)c2cc4cc([C@H]5CCOC(C)(C)C5)ccc4n2[C@@]2(c4noc(=O)[nH]4)C[C@@H]2C)CCC3)cc(C)c1F [Compound 703, 3-((1S,2S)-1-(5-((S)-2,2-dimethyltetrahydro-2H-pyran-4-yl)-2-((S)-3-(3-(4-fluoro-1-methyl-1H-indazol-5-yl)-2-oxo-2,3-dihydro-1H-imidazol-1-yl)-2-(4-fluoro-3,5-dimethylphenyl)-4-methyl-5,6,7,8-tetrahydro-4H-pyrazolo[1,5-a][1,4]diazepine-5-carbonyl)-1H-indol-1-yl)-2-methylcyclopropyl)-1,2,4-oxadiazol-5 (4H)-one] is lower in EC50: > 0.1 µM for the first, 0.0024 µM for the second. The second is the more potent here.

Compared with Cc1cc(-n2nc3c(c2-n2ccn(-c4ccc5c(cnn5C)c4F)c2=O)[C@@H]2COC[C@H](C3)N2C(=O)c2cc3cc([C@H]4CCOC(C)(C)C4)cc(F)c3n2[C@@]2(c3noc(=O)[nH]3)C[C@@H]2C)cc(C)c1F [Compound 705, 3-((1S,2S)-1-(5-((S)-2,2-dimethyltetrahydro-2H-pyran-4-yl)-7-fluoro-2-((4R,8S)-3-(3-(4-fluoro-1-methyl-1H-indazol-5-yl)-2-oxo-2,3-dihydro-1H-imidazol-1-yl)-2-(4-fluoro-3,5-dimethylphenyl)-2,4,5,7,8,9-hexahydro-4,8-epiminooxocino [5,4-c]pyrazole-10-carbonyl)-1H-indol-1-yl)-2-methylcyclopropyl)-1,2,4-oxadiazol-5(4H)-one], Cc1cc(-n2nc3c(c2-n2ccn(-c4ccc5c(cnn5C)c4F)c2=O)[C@@H]2CC[C@H](C3)N2C(=O)c2cc3cc(C4CCOC(C)(C)C4)cc(F)c3n2[C@@]2(c3noc(=O)[nH]3)C[C@@H]2C)cc(C)c1F (stereo partly drawn) [Compound 618, 3-[(1S,2S)-1-[5-(2,2-dimethyltetrahydropyran-4-yl)-7-fluoro-2-[(1S,8R)-4-(4-fluoro-3,5-dimethyl-phenyl)-3-[3-(4-fluoro-1-methyl-indazol-5-yl)-2-oxo-imidazol-1-yl]-4,5,11-triazatricyclo[6.2.1.02,6]undeca-2,5-diene-11-carbonyl]indol-1-yl]-2-methyl-cyclopropyl]-4H-1,2,4-oxadiazol-5-one] is 12-fold higher in EC50: 0.0024 µM for the first, 0.0296 µM for the second.

Going from Cc1cc(-n2nc3c(c2-n2ccn(-c4ccc5c(c4)C4(CC4)C(=O)N5C)c2=O)[C@@H]2CCC[C@H](C3)N2C(=O)c2cc3cc([C@H]4CCOC(C)(C)C4)ccc3n2[C@@]2(c3noc(=O)[nH]3)C[C@@H]2C)cc(C)c1F [Compound 714, 3-((1S,2S)-1-(5-((S)-2,2-dimethyltetrahydro-2H-pyran-4-yl)-2-((4S,8R)-2-(4-fluoro-3,5-dimethylphenyl)-3-(3-(1′-methyl-2′-oxospiro[cyclopropane-1,3′-indolin]-5′-yl)-2-oxo-2,3-dihydro-1H-imidazol-1-yl)-4,5,6,7,8,9-hexahydro-2H-[4,8]epiminocycloocta [c]pyrazole-10-carbonyl)-1H-indol-1-yl)-2-methylcyclopropyl)-1,2,4-oxadiazol-5 (4H)-one] to Cc1cc(-n2nc3c(c2-n2ccn(-c4ccc5c(cnn5C)c4F)c2=O)[C@@H]2CC[C@H](C3)N2C(=O)c2c(F)c3cc(C4CCOC(C)(C)C4)ccc3n2[C@@]2(c3noc(=O)[nH]3)C[C@@H]2C)cc(C)c1F (stereo partly drawn) [Compound 708, 3-[(1S,2S)-1-[5-(2,2-dimethyltetrahydropyran-4-yl)-3-fluoro-2-[(1S,8R)-4-(4-fluoro-3,5-dimethyl-phenyl)-3-[3-(4-fluoro-1-methyl-indazol-5-yl)-2-oxo-imidazol-1-yl]-4,5,11-triazatricyclo[6.2.1.02,6]undeca-2,5-diene-11-carbonyl]indol-1-yl]-2-methyl-cyclopropyl]-4H-1,2,4-oxadiazol-5-one], the EC50 rises from 0.002 µM to 0.0085 µM (4.2-fold). The first is the more potent here.
